Assay results published in patent publication US20210169113A1, “COMPOSITION FOR IMPROVING INTESTINAL FLORA” (Hosoda SHC Co., Ltd., priority 2018, published 2021).
Like-named read-outs stand apart in the source and are kept apart here.

Tests used:
[1] = HPLC of excrement for gnetin C and glycosides (Test Example 7); conditions: 14 weeks
Description: (§1) Seven mice were fed ad libitum with the test diet in which 0.5% of gnemonoside A separated and purified in Example 2 was included in the high-fat diet in an amount of 5 g/mouse/day for 14 consecutive weeks, and then 10 mg of their excrement was collected. The excrement thus collected and 10 mg of the excrement collected in Test example 4 were each added with methanol (acetonitrile aqueous solution), suspended by an ultrasonic treatment, and then filtered. The filtrate was washed with hexane and passed through an ODS cartridge, and 20 μL of the elute was applied to an HPLC apparatus.

[2] = mouse, in vivo
Description: as §1

Molecule	Fate in the intestinal tract ([1]; 0.5% in high-fat diet)	Peaks in HPLC chromatogram of the excrement ([1]; 0.5% of substance in high-fat diet, mice excrement)	Peaks in HPLC chromatogram of the excrement [2]
gnemonoside A	hydrolyzed and changed to gnetin C in the intestinal tract	peaks of gnetin C and the monoglucuronide, but not a peak of gnemonoside A, C, or D	–
Oc1ccc(/C=C/c2cc(O)c3c(c2)OC(c2ccc(O)cc2)C3c2cc(O)cc(O)c2)cc1 (stereo not drawn) [gnetin C]	–	–	peaks of gnetin C and monoglucuronic acid conjugate of gnetin C
